From ChEMBL document CHEMBL1156790, “Synthesis and structure-activity relationships of antitubercular 2-nitroimidazooxazines bearing heterocyclic side chains” (J Med Chem, 2010)
≈ marks a conversion by molar mass, not a printed value.

Tests used:
[1] = test system: Mycobacterium tuberculosis; assay: Antimycobacterial activity against Mycobacterium tuberculosis H37Rv after 16 to 24 hrs by microplate alamar blue assay; format: functional
Vero = assay: Cytotoxicity against african green monkey Vero cells after 72 hrs by tetrazolium dye assay; format: cell-based; settings: Chlorocebus sabaeus
[2] = test system: Mycobacterium tuberculosis; assay: Antimycobacterial activity against Mycobacterium tuberculosis H37Rv expressing pFCA-luxAB after 10 days by luminescence-based low-oxygen recovery assay; format: functional; settings: 240 h
[3] = Solubility in water at pH 7 at 20 degC; format: physicochemical
[4] = Thermodynamic solubility in water at pH 7.4 at; format: physicochemical; settings: water
[5] = Metabolic stability in mouse liver microsomes after 1 hr at 37 degC; format: ADME, Microsome; settings: liver microsomes, read-out: Stability
[6] = test system: Mycobacterium tuberculosis; assay: Antitubercular effect in Mycobacterium tuberculosis infected BALB/c mouse assessed as CFU reduction at 100 mg/kg, po administered 5 days a week for 3 weeks relative to PA-824; format: functional
[7] = Metabolic stability in human liver microsomes after 1 hr at 37 degC; format: ADME, Microsome; settings: liver microsomes, read-out: Stability

| SMILES | MIC [1] [µM] | IC50 (Vero) [µM] | MIC [2] [µM] | solubility [3] [µg/mL] | solubility thermodynamic [4] [µg/mL] | remaining at 1 h [5] [%] | fold change (FC) [6] | remaining at 1 h [7] [%] |
| --- | --- | --- | --- | --- | --- | --- | --- | --- |
| COc1ccc(-n2cc(CO[C@@H]3COc4nc([N+](=O)[O-])cn4C3)nn2)cc1F | 0.86 (≈ 0.336 µg/mL) | > 128 | 8.7 (≈ 3.4 µg/mL) | – | – | – | – | – |
| O=[N+]([O-])c1cn2c(n1)OC[C@@H](OCc1nnn(-c3ccc(C(F)(F)F)cc3)n1)C2 | 0.2 (≈ 0.0823 µg/mL) | > 128 | 1.4 (≈ 0.576 µg/mL) | 5 (≈ 12.2 µM) | – | – | – | – |
| O=[N+]([O-])c1cn2c(n1)OC[C@@H](OCc1ccc(OC(F)(F)F)cc1)C2 [PRETOMANID] | – | > 128 | 2.6 (≈ 0.934 µg/mL) | – | 11 (≈ 30.6 µM) | – | – | – |
| O=[N+]([O-])c1cn2c(n1)OC[C@@H](OCc1cccc(-c3ccc(OC(F)(F)F)cc3)c1)C2 | – | > 128 | 2.2 (≈ 0.958 µg/mL) | – | – | – | – | – |
| COc1ccc(-c2ncc(CO[C@@H]3COc4nc([N+](=O)[O-])cn4C3)n2C)cc1F | 1.4 (≈ 0.565 µg/mL) | > 128 | > 32 | – | – | – | – | – |
| O=[N+]([O-])c1cn2c(n1)OC[C@@H](OCc1cc(-c3ccc(OC(F)(F)F)cc3)no1)C2 | 0.55 (≈ 0.234 µg/mL) | > 128 | 1.2 (≈ 0.512 µg/mL) | – | – | – | – | – |
| O=[N+]([O-])c1cn2c(n1)OC[C@@H](OCc1nnn(-c3ccc(F)cc3)n1)C2 | 0.29 (≈ 0.105 µg/mL) | > 128 | 3.4 (≈ 1.23 µg/mL) | – | – | – | – | – |
| O=[N+]([O-])c1cn2c(n1)OC[C@@H](OCc1ccc(-c3ccc(OC(F)(F)F)cc3)s1)C2 | 0.85 (≈ 0.375 µg/mL) | > 128 | 2.6 (≈ 1.15 µg/mL) | – | – | – | – | – |
| N#Cc1ccc(-n2cc(CO[C@@H]3COc4nc([N+](=O)[O-])cn4C3)nn2)cc1 | 0.89 (≈ 0.327 µg/mL) | > 128 | 11 (≈ 4.04 µg/mL) | – | – | – | – | – |
| O=[N+]([O-])c1cn2c(n1)OC[C@@H](OCc1nnn(-c3ccc(OC(F)(F)F)cc3)n1)C2 | 0.035 (≈ 0.015 µg/mL) | > 128 | 1.3 (≈ 0.555 µg/mL) | – | – | 81 | – | – |
| Cn1c(CO[C@@H]2COc3nc([N+](=O)[O-])cn3C2)cnc1-c1ccc(C(F)(F)F)cc1 | 0.65 (≈ 0.275 µg/mL) | > 128 | 9.7 (≈ 4.11 µg/mL) | 16 (≈ 37.8 µM) | – | – | – | – |
| O=[N+]([O-])c1cn2c(n1)OC[C@@H](OCc1cn(-c3ccc(F)cc3)nn1)C2 | 1.2 (≈ 0.432 µg/mL) | > 128 | 6.9 (≈ 2.49 µg/mL) | – | – | – | – | – |
| Cn1nc(-c2ccc(F)cc2)cc1CO[C@@H]1COc2nc([N+](=O)[O-])cn2C1 | 0.36 (≈ 0.134 µg/mL) | > 128 | 4 (≈ 1.49 µg/mL) | – | – | – | – | – |
| O=[N+]([O-])c1cn2c(n1)OC[C@@H](OCc1ccn(-c3ccc(F)cc3)n1)C2 | 0.11 (≈ 0.0395 µg/mL) | > 128 | 7.2 (≈ 2.59 µg/mL) | – | – | – | – | – |
| O=[N+]([O-])c1cn2c(n1)OC[C@@H](OCc1ccc(-c3ccc(C(F)(F)F)cc3)s1)C2 | 0.16 (≈ 0.0681 µg/mL) | > 128 | 1 (≈ 0.425 µg/mL) | 0.7 (≈ 1.65 µM) | – | – | – | – |
| O=[N+]([O-])c1cn2c(n1)OC[C@@H](OCc1ccc(-c3cc(C(F)(F)F)ccn3)s1)C2 | 0.28 (≈ 0.119 µg/mL) | > 128 | 1.7 (≈ 0.725 µg/mL) | – | – | – | – | – |
| COc1ccc(-c2cccc(CO[C@@H]3COc4nc([N+](=O)[O-])cn4C3)c2)cc1F | – | > 128 | 2.2 (≈ 0.879 µg/mL) | – | – | – | – | – |
| O=[N+]([O-])c1cn2c(n1)OC[C@@H](OCc1ccc(-c3ccc(F)nc3)s1)C2 | 0.86 (≈ 0.324 µg/mL) | > 128 | 2.3 (≈ 0.866 µg/mL) | – | – | – | – | – |
| Cn1c(CO[C@@H]2COc3nc([N+](=O)[O-])cn3C2)cnc1-c1ccc(C#N)cc1 | 2.8 (≈ 1.07 µg/mL) | > 128 | > 32 | – | – | – | – | – |
| N#Cc1ccc(-c2cccc(CO[C@@H]3COc4nc([N+](=O)[O-])cn4C3)c2)cc1 | – | > 128 | 4.8 (≈ 1.81 µg/mL) | – | – | – | – | – |
| O=[N+]([O-])c1cn2c(n1)OC[C@@H](OCc1nnn(-c3ccccc3)n1)C2 | 1.2 (≈ 0.412 µg/mL) | > 128 | 5.7 (≈ 1.96 µg/mL) | – | – | – | – | – |
| O=[N+]([O-])c1cn2c(n1)OC[C@@H](OCc1cnn(-c3ccccc3)n1)C2 | 0.25 (≈ 0.0856 µg/mL) | > 128 | 2.2 (≈ 0.753 µg/mL) | – | – | – | – | – |
| N#Cc1ccc(-c2nc(CO[C@@H]3COc4nc([N+](=O)[O-])cn4C3)cs2)cc1 | 0.67 (≈ 0.257 µg/mL) | > 128 | 3.2 (≈ 1.23 µg/mL) | – | – | – | – | – |
| O=[N+]([O-])c1cn2c(n1)OC[C@@H](OCc1cccc(-c3ccc(F)cc3)c1)C2 | – | > 128 | 3.8 (≈ 1.4 µg/mL) | 1.8 (≈ 4.87 µM) | – | – | – | – |
| O=[N+]([O-])c1cn2c(n1)OC[C@@H](OCc1cn(-c3ccc(C(F)(F)F)cc3)nn1)C2 | 0.11 (≈ 0.0451 µg/mL) | > 128 | 3.4 (≈ 1.4 µg/mL) | 4.6 (≈ 11.2 µM) | – | – | – | – |
| COc1ccc(-n2cc(CO[C@@H]3COc4nc([N+](=O)[O-])cn4C3)nn2)cn1 | 1.6 (≈ 0.597 µg/mL) | > 128 | 12 (≈ 4.48 µg/mL) | – | – | – | – | – |
| N#Cc1ccc(-c2ccc(CO[C@@H]3COc4nc([N+](=O)[O-])cn4C3)s2)cc1 | 0.055 (≈ 0.021 µg/mL) | > 128 | 1.7 (≈ 0.65 µg/mL) | – | – | 54 | 0.02 | 85 |
| O=[N+]([O-])c1cn2c(n1)OC[C@@H](OCc1cccc(-c3ccc(C(F)(F)F)cc3)c1)C2 | – | > 128 | 2.9 (≈ 1.22 µg/mL) | 2.8 (≈ 6.68 µM) | – | – | – | – |
